The subject of assay [1] is U87MG cells (2-HG production). Kind of assay: Cellular assay, inhibition of 2-HG production in U87MG cells. Format: cell-based. On the procedure: (§1) Cells (HT1080 or U87MG) are grown in T125 flasks in DMEM containing 10% FBS, 1× penicillin/streptomycin and 500 ug/mL G418 (present in U87MG cells only). They are harvested by trypsin and seeded into 96 well white bottom plates at a density of 5000 cell/well in 100 ul/well in DMEM with 10% FBS. […] Cells are incubated overnight at 37° C. in 5% CO2. The next day test compounds are made up at 2× the final concentration and 100 ul are added to each cell well. The final concentration of DMSO is 0.2% and the DMSO control wells are plated in row G. The plates are then placed in the incubator for 48 hours. […] The cell plate is placed back in the incubator for another 24 hours. At 72 hours post compound addition, 10 mL/plate of Promega Cell Titer Glo reagent is thawed and mixed. The cell plate is removed from the incubator and allowed to equilibrate to room temperature. Then 100 ul of Promega Cell Titer Glo reagent is added to each well of media. The cell plate is then placed on an orbital shaker for 10 minutes and then allowed to sit at room temperature for 20 minutes. The plate is then read for luminescence with an integration time of 500 ms.

The test system of assay [2] is HT1080 cells (2-HG production). In words: Cellular assay, inhibition of 2-HG production in HT1080 cells. As to conditions: Homo sapiens, HT-1080, 48 h. The format is cell-based. On the procedure: as §1
The mark [3] stands for this setting: inhibition of 2-HG production, U87MG cells, 48 hours.

Here are results for 13 molecules from patent US10717764B2, “Therapeutically active compounds and their methods of use” (Agios Pharmaceuticals, Inc., priority 2013, dated 2020).

What is called IC50 is the concentration needed to halve the response being measured. Read a high IC50 as weaker potency. Regarding “(S)-tert-butyl 3-(((S)-1-(2-chlorophenyl)-2-((3,3-difluorocyclobutyl) amino)-2-oxoethyl)(3,5-difluorophenyl)carbamoyl)-5-oxopiperazine-1-carboxylate [Compound 97]”, the IC50 in assay [1] (setting [3]) was less than 100 nM.

In assay [1] (Homo sapiens, U-87 MG, 48 h), `C[C@]1(O)C[C@@H](C(=O)N(c2cccc(F)c2)[C@H](C(=O)NC2CC(F)(F)C2)c2ccccc2Cl)N(c2cc(C#N)ccn2)C1=O` (stereo in doubt) [Compound 183, (2S)—N—((R)-1-(2-chlorophenyl)-2-(3,3-difluorocyclobutylamino)-2-oxoethyl)-1-(4-cyanopyridin-2-yl)-N-(3-fluorophenyl)-4-hydroxy-4-methyl-5-oxopyrrolidine-2-carboxamide] showed a concentration for half-maximal inhibition (IC50) of less than 100 nM.

Turning to “(S)—N—((S)-1-(2-Chlorophenyl)-2-(3,3-difluorocyclobutylamino)-2-oxoethyl)-N-(3-cyano-5-fluorophenyl)-3-(3-cyanophenyl)-2-oxooxazolidine-4-carboxamide [Compound 134]”, in assay [1] (setting [3]), the IC50 is less than 100 nM.

Molecule `N#Cc1ccnc(N2C(=O)CC[C@H]2C(=O)N(c2cc(F)cc(F)c2)[C@H](C(=O)NC2CC(F)(F)C2)c2ccccc2F)c1` [Compound 208, (S)-1-(4-Cyanopyridin-2-yl)-N—((S)-2-(3,3-difluorocyclobutylamino)-1-(2-fluorophenyl)-2-oxoethyl)-N-(3,5-difluorophenyl)-5-oxopyrrolidine-2-carboxamide] yielded an IC50 in assay [1] (Homo sapiens, U-87 MG, 48 h) of less than 100 nM.

Turning to `CS(=O)(=O)c1cc(F)cc(N(C(=O)[C@@H]2CCC(=O)N2c2cc(C#N)ccn2)C(C(=O)NC2CC(F)(F)C2)c2ccccc2Cl)c1` (stereo partly drawn) [Compound 110, (2S)—N-(1-(2-Chlorophenyl)-2-((3,3-difluorocyclobutyl)amino)-2-oxoethyl)-1-(4-cyanopyridin-2-yl)-N-(3-fluoro-5-(methylsulfonyl)phenyl)-5-oxopyrrolidine-2-carboxamide], the IC50 in assay [1] (Homo sapiens, U-87 MG, 48 h) was less than 100 nM.

`O=C(N[C@H]1CCC(F)(F)C1)[C@H](c1ccccc1Cl)N(C(=O)[C@@H]1CCC(=O)N1c1ncccn1)c1cccc(F)c1` (stereo in doubt) [Compound 73] yielded an IC50 in assay [1] (Homo sapiens, U-87 MG, 48 h) of less than 100 nM.

Molecule “(S)—N—((S)-1-(2-Chlorophenyl)-2-((4,4-difluorocyclohexyl)amino)-2-oxoethyl)-1-(4-cyanopyridin-2-yl)-N-(1H-indazol-6-yl)-5-oxopyrrolidine-2-carboxamide [Compound 136]” came in with an IC50 in assay [1] (setting [3]) of less than 100 nM.

With “(S)—N—((S)-1-(2-Chlorophenyl)-2-((3,3-difluorocyclobutyl)amino)-2-oxoethyl)-1-(4-cyanopyridin-2-yl)-N-(1H-indazol-6-yl)-5-oxopyrrolidine-2-carboxamide [Compound 205]”, in assay [1] (setting [3]), the IC50 is less than 100 nM.

Turning to “(S)—N—((S)-1-(2-Chlorophenyl)-2-(3,3-difluorocyclobutylamino)-2-oxoethyl)-1-(3-cyano-phenyl)-N-(1H-indazol-7-yl)-5-oxopyrrolidine-2-carboxamide [Compound 186]”, the IC50 in assay [1] (setting [3]) was less than 100 nM.

As for `O=C(NC1CCCCC1)[C@@H](c1ccccc1Cl)N(C(=O)[C@@H]1CCC(=O)N1c1ncccn1)c1cccc(F)c1` [Compound 6], in assay [2], the IC50 lay within 100 to 500 nM.

`N#Cc1cccc(N2C(=O)OC[C@H]2C(=O)N(c2cccc3cn[nH]c23)[C@H](C(=O)NC2CCC(F)(F)CC2)c2ccccc2Cl)c1` [Compound 142, (S)—N—((S)-1-(2-Chlorophenyl)-2-(4,4-difluorocyclohexylamino)-2-oxoethyl)-3-(3-cyanophenyl)-N-(1H-indazol-7-yl)-2-oxooxazolidine-4-carboxamide] showed an IC50 in assay [1] (setting [3]) of less than 100 nM.

“(S)—N—((S)-1-(2-Chlorophenyl)-2-((3,3-difluorocyclobutyl)amino)-2-oxoethyl)-1-(4-cyanopyridin-2-yl)-N-(3,5-difluorophenyl)-5-oxopyrrolidine-2-carboxamide [Compound 71]” came in with a half-maximal inhibitory concentration (IC50) in assay [1] (setting [3]) of less than 100 nM.

The molecule `O=C(NC1CC(F)(F)C1)[C@H](c1ccccc1Cl)N(C(=O)[C@@H]1CCC(=O)N1c1ccccn1)c1cccc(F)c1` [Compound 5] gave an IC50 in assay [1] (Homo sapiens, U-87 MG, 48 h) of 100 to 500 nM.
